{"source": "paper PMC2290058", "about": "(The Journal of Cell Biology, 1992)", "key": {"[1]": {"tested_on": "alpha4 integrin subunit", "assay": "Flow cytometry, cell surface expression of alpha4 integrin after treatment", "assay_type": "cell-based, human", "settings": "1 mM xyloside 24 h (Fig. 2) or chondroitinase ABC (not shown); mAb P4C2"}, "[2]": {"tested_on": "beta1 integrin subunit", "assay": "Flow cytometry, cell surface expression of beta1 integrin after treatment", "assay_type": "cell-based, human", "settings": "1 mM xyloside 24 h (Fig. 2) or chondroitinase ABC (not shown); mAb P4C10"}, "[3]": {"tested_on": "A375SM human melanoma cells", "assay": "Cytotoxicity check of treatments", "assay_type": "cell-based", "settings": "trypan blue exclusion; 3H-TdR or [35S]methionine incorporation; not shown"}, "[4]": {"target": "tryptic/catheptic 33-kD carboxyl-terminal heparin binding fragment of human plasma fibronectin A-chains (human)", "assay": "ligand affinity column chromatography, competition"}, "[5]": {"tested_on": "A375SM human melanoma cells", "assay": "Promotion of melanoma cell adhesion to coated substrata", "assay_type": "cell-based", "settings": "for amount of coated ligand that promoted half maximal cell adhesion: peptide/OVA conjugate on Immulon 1 polystyrene wells, 30-min assay"}, "[6]": {"tested_on": "anti-FN-C/H-III IgG", "assay": "ELISA of purified anti-FN-C/H-III IgG", "assay_type": "binding, rabbit", "settings": "coated substrata; not shown"}, "[7]": {"tested_on": "A375SM human melanoma cells", "assay_type": "cell-based", "settings": "for effect of ctDX (alphaDX) on cell adhesion to peptide: 1 mM inactive analogue, FN-C/H-III Fig. 5A, others not shown"}, "[8]": {"tested_on": "A375SM human melanoma cells", "assay_type": "cell-based"}, "[9]": {"tested_on": "purified melanoma cell CSPG", "assay": "Binding of purified melanoma CSPG or CS to peptide/OVA affinity columns", "design": "species or system human"}, "[10]": {"settings": "earlier work, ref McCarthy et al., 1988a, 1990, Haugen et al.; cited from earlier work"}, "[11]": {"target": "CSPG binding to 33-kD fragment", "design": "species or system human", "settings": "inhibitor 500 ug/ml, 2 h, 4°C; CSPG about 7,000 dpm; buffer control <50"}, "[12]": {"settings": "wells coated with 100 nmole FN-C/H-III/OVA (Fig. 5A)"}}, "data": [{"molecule": "chondroitinase ABC", "values": [{"measurement": "cell surface alpha4 integrin level compared to untreated controls", "setting": "[1]", "value": "identical"}, {"measurement": "cell surface beta1 integrin level compared to untreated controls", "setting": "[2]", "value": "identical"}, {"measurement": "cytotoxic effect as cause of the inhibition of cell adhesion", "setting": "[3]", "value": "not due to cytotoxic"}]}, {"molecule": "cell surface chondroitin sulfate proteoglycan (CSPG) purified from A375SM human melanoma cells", "values": [{"measurement": "radioactivity bound to the 33-kD fragment column, buffer alone", "setting": "[4]", "value": 6980, "unit": "dpm"}]}, {"molecule": "KNNQKSEPLIGRKKT [FN-C/H-II]", "values": [{"measurement": "amount of coated ligand that promoted half maximal cell adhesion", "setting": "[5]", "value": 20, "unit": "nmol"}, {"measurement": "recognition by anti-FN-C/H-III IgG in ELISA", "setting": "[6]", "value": "did not recognize"}, {"measurement": "effect of ctDX (alphaDX) on cell adhesion to peptide", "setting": "[7]", "value": "resistant"}, {"measurement": "inhibition of cell adhesion by chondroitinase ABC or /3DX", "setting": "[7]; approximate, stated in text for chondroitinase ABC or /3DX", "value": "~ 50%"}, {"measurement": "effect of anti-alpha5 integrin mAb P1D6 on cell adhesion to peptide", "setting": "[8]; P1D6 (Fig. 8), mean of triplicate", "value": "did not inhibit"}, {"measurement": "inhibition of cell adhesion to peptide by anti-alpha4 integrin mAb P4C2", "setting": "[8]; P4C2, not shown", "value": "50-60%"}, {"measurement": "CSPG binding affinity compared with FN-C/H-III", "setting": "[9]; affinity column, Discussion", "value": "lower affinity than that observed for FN-C/H-III"}, {"measurement": "binding of purified CSPG to peptide affinity column", "setting": "[9]; peptide/OVA column, applied in 0.05 M NaCl (Fig. 7)", "value": "bound purified CSPG"}, {"measurement": "heparin binding", "setting": "[10]", "value": "bind heparin"}]}, {"molecule": "OVA/OVA: ovalbumin coupled to ovalbumin, control conjugate", "values": [{"measurement": "CSPG in flow through of 33-kD fragment affinity column", "setting": "[11]", "value": 123, "unit": "dpm"}]}, {"molecule": "O=[N+]([O-])c1ccc(O[C@H]2OC[C@@H](O)[C@H](O)[C@H]2O)cc1", "note": "[ctDX, p-Nitrophenyl-ct-o-xylopyranoside]", "values": [{"measurement": "cytotoxic effect as cause of the inhibition of cell adhesion", "setting": "[3]", "value": "not due to cytotoxic"}]}, {"molecule": "O=[N+]([O-])c1ccc(O[C@@H]2OC[C@@H](O)[C@H](O)[C@H]2O)cc1", "note": "[/3DX, p-nitrophenyl-/3-o-xylopyranoside]", "values": [{"measurement": "cell surface alpha4 integrin level compared to untreated controls", "setting": "[1]", "value": "identical"}, {"measurement": "cell surface beta1 integrin level compared to untreated controls", "setting": "[2]", "value": "identical"}, {"measurement": "cytotoxic effect as cause of the inhibition of cell adhesion", "setting": "[3]", "value": "not due to cytotoxic"}]}, {"molecule": "YRVRVTPKEKTGPMKE [FN-C/H-III]", "values": [{"measurement": "promotion of melanoma cell adhesion", "setting": "[5]; FN-C/H-III/OVA coated wells, 30-min assay (Fig. 4A)", "value": "promoted melanoma cell adhesion"}, {"measurement": "amount of coated ligand that promoted half maximal cell adhesion", "setting": "[5]", "value": 100, "unit": "nmol"}, {"measurement": "recognition by anti-FN-C/H-III IgG in ELISA", "setting": "[6]", "value": "specifically recognized"}, {"measurement": "effect of /3DX on cell adhesion to FN-C/H-III", "setting": "[7]; 1 mM /3DX, wells coated with 100 nmole FN-C/H-III/OVA (Fig. 5A)", "value": "inhibited"}, {"measurement": "effect of ctDX (alphaDX) on cell adhesion to peptide", "setting": "[7]", "value": "not by heparitinase or t~DX"}, {"measurement": "effect of chondroitinase ABC on cell adhesion to FN-C/H-III", "setting": "[7]; [12]", "value": "inhibited"}, {"measurement": "effect of heparitinase on cell adhesion to FN-C/H-III", "setting": "[7]; [12]", "value": "not by heparitinase"}, {"measurement": "effect of anti-alpha4 integrin mAb P4C2 on cell adhesion to peptide", "setting": "[8]; P4C2, FN-C/H-III coated substrata", "value": "did not inhibit cell adhesion"}]}]}
